Columns and labels:
Assay in all cases: split-luciferase competition binding
PDPK1 (human) = PDPK1 (human) (UniProt O15530); settings: compound 10.0 µM
AKT2 (human) = AKT2 (human) (UniProt P31751); settings: compound 10.0 µM
DMPK (human) = DMPK (human) (UniProt Q09013); settings: compound 10.0 µM
RPS6KA3 KD1 (human) = RPS6KA3 KD1 (human) (UniProt P51812); settings: compound 10.0 µM
SGK3 (human) = SGK3 (human) (UniProt Q96BR1); settings: compound 10.0 µM
RPS6KA1 KD1 (human) = RPS6KA1 KD1 (human) (UniProt Q15418); settings: compound 10.0 µM
AURKB (human) = AURKB (human) (UniProt Q96GD4); settings: compound 10.0 µM
RPS6KA6 KD1 (human) = RPS6KA6 KD1 (human) (UniProt Q9UK32); settings: compound 10.0 µM
AURKA (human) = AURKA (human) (UniProt O14965); settings: compound 10.0 µM
RPS6KA2 KD1 (human) = RPS6KA2 KD1 (human) (UniProt Q15349); settings: compound 10.0 µM
PRKCG (human) = PRKCG (human) (UniProt P05129); settings: compound 10.0 µM
AURKC (human) = AURKC (human) (UniProt Q9UQB9); settings: compound 10.0 µM
PRKCD (human) = PRKCD (human) (UniProt Q05655); settings: compound 10.0 µM
RPS6KA5 KD1 (human) = RPS6KA5 KD1 (human) (UniProt O75582); settings: compound 10.0 µM
SGK2 (human) = SGK2 (human) (UniProt Q9HBY8); settings: compound 10.0 µM
PRKCI (human) = PRKCI (human) (UniProt P41743); settings: compound 10.0 µM
PRKCH (human) = PRKCH (human) (UniProt P24723); settings: compound 10.0 µM
PKN1 (human) = PKN1 (human) (UniProt Q16512); settings: compound 10.0 µM
PRKACA (mouse) = settings: compound 10.0 µM; accession and sequence are those of the human protein
AKT3 (human) = AKT3 (human) (UniProt Q9Y243); settings: compound 10.0 µM
STK32B (human) = STK32B (human) (UniProt Q9NY57); settings: compound 10.0 µM
PRKX (human) = PRKX (human) (UniProt P51817); settings: compound 10.0 µM
PRKCQ (human) = PRKCQ (human) (UniProt Q04759); settings: compound 10.0 µM
RPS6KA4 KD1 (human) = RPS6KA4 KD1 (human) (UniProt O75676); settings: compound 10.0 µM
AKT1 (human) = AKT1 (human) (UniProt P31749); settings: compound 10.0 µM
PRKCE (human) = PRKCE (human) (UniProt Q02156); settings: compound 10.0 µM
PRKACB (human) = PRKACB (human) (UniProt P22694); settings: compound 10.0 µM

Chain of RPS6KA4 KD1 (human) (O75676 whole entry, looked up): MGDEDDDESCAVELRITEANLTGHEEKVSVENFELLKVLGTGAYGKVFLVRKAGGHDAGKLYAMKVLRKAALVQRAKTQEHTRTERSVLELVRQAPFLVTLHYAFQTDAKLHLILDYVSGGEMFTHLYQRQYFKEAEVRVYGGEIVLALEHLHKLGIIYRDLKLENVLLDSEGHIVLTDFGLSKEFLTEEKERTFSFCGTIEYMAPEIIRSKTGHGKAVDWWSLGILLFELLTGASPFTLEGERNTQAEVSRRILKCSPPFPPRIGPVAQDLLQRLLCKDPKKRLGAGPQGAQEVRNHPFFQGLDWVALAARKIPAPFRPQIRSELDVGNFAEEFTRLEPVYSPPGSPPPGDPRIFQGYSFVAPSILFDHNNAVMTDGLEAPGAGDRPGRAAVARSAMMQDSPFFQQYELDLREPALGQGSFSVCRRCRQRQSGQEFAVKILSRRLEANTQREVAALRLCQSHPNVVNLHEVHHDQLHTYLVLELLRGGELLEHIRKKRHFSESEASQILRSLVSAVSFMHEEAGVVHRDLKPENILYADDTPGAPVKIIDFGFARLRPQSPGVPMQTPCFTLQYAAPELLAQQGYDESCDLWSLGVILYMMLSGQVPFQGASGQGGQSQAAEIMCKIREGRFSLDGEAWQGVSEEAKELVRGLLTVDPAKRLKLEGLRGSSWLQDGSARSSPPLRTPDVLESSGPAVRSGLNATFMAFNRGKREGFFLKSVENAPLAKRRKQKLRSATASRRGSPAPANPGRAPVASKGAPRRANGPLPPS
Chain of AURKB (human) (Q96GD4 whole entry, looked up): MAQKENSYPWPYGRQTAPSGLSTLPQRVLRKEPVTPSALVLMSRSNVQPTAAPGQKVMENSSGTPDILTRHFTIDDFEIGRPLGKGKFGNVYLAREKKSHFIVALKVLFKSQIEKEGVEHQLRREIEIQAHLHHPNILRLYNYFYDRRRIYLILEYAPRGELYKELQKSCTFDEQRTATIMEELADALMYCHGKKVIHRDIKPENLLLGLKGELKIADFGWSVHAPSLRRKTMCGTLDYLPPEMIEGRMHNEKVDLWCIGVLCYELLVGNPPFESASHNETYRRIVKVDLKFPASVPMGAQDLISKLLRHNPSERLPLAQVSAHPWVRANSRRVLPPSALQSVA
Chain of PRKCE (human) (Q02156 whole entry, looked up): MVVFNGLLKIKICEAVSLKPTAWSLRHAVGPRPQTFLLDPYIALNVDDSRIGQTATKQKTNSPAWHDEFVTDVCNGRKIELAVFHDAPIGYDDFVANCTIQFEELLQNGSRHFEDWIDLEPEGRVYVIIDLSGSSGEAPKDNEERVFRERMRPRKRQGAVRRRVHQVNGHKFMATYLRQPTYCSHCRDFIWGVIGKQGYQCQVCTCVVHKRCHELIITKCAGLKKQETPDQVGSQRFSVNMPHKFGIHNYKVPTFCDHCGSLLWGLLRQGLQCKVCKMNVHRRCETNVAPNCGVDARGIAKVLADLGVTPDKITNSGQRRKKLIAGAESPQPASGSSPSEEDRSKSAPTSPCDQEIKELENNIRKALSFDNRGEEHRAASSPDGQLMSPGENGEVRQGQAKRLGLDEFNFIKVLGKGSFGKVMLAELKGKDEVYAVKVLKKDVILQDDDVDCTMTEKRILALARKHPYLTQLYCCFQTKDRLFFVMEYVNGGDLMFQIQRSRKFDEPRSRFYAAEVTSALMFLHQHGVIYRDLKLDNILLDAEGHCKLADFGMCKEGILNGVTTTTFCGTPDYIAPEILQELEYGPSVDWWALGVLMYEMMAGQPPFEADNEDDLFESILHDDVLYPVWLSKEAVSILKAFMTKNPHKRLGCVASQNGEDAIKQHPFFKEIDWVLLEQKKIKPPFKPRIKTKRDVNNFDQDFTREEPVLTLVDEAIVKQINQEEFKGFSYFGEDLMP
Chain of RPS6KA1 KD1 (human) (Q15418 whole entry, looked up): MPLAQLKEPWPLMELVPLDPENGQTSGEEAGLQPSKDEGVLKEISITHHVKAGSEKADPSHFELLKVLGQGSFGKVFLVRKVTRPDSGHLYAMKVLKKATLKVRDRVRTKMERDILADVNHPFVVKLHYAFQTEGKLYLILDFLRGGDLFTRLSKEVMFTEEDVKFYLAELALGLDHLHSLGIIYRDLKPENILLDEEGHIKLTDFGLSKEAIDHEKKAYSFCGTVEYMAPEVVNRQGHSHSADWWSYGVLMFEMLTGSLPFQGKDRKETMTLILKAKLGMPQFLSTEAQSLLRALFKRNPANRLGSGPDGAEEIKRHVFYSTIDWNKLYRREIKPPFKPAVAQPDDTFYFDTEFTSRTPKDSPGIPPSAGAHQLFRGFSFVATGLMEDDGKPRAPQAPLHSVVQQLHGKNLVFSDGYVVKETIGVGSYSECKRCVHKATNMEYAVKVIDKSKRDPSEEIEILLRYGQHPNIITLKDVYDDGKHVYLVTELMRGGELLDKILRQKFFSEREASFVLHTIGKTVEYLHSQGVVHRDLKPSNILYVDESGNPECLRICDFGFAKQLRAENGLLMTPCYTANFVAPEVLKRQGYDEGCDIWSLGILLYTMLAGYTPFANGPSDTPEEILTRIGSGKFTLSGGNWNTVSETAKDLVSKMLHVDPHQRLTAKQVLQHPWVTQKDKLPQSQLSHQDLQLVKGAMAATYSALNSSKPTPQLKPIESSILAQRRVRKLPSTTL
Chain of PKN1 (human) (Q16512 whole entry, looked up): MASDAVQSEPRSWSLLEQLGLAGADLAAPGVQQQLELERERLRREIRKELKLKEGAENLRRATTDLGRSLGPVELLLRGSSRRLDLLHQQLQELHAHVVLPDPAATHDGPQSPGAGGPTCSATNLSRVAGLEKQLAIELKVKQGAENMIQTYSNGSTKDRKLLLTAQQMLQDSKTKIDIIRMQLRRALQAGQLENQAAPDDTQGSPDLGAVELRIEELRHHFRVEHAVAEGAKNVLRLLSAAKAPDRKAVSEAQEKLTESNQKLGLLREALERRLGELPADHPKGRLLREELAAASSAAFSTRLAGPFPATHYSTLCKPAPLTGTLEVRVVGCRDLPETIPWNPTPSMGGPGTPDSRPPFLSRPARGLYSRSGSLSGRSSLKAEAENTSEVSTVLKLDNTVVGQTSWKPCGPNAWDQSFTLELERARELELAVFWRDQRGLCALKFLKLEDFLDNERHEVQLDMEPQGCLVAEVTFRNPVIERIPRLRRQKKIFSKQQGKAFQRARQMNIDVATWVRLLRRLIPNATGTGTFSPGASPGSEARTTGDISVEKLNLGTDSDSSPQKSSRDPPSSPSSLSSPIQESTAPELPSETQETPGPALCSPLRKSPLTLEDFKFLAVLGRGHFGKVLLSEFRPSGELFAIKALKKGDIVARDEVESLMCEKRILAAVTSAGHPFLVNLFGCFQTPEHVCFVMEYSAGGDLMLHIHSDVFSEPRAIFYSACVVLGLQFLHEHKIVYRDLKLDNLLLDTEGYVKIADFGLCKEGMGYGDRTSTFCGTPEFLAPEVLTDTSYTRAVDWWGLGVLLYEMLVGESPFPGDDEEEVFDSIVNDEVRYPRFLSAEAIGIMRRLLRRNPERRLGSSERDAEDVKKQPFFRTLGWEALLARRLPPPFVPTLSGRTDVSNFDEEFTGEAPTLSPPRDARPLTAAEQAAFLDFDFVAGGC
Chain of AURKC (human) (Q9UQB9 whole entry, looked up): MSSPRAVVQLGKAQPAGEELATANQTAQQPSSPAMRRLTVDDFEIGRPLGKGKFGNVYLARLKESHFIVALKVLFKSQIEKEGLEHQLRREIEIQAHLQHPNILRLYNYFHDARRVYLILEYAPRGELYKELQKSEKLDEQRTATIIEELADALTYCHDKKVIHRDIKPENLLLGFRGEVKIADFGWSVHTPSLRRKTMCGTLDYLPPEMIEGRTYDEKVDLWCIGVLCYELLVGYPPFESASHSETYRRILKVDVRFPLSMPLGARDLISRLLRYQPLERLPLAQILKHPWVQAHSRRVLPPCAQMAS
Chain of RPS6KA3 KD1 (human) (P51812 whole entry, looked up): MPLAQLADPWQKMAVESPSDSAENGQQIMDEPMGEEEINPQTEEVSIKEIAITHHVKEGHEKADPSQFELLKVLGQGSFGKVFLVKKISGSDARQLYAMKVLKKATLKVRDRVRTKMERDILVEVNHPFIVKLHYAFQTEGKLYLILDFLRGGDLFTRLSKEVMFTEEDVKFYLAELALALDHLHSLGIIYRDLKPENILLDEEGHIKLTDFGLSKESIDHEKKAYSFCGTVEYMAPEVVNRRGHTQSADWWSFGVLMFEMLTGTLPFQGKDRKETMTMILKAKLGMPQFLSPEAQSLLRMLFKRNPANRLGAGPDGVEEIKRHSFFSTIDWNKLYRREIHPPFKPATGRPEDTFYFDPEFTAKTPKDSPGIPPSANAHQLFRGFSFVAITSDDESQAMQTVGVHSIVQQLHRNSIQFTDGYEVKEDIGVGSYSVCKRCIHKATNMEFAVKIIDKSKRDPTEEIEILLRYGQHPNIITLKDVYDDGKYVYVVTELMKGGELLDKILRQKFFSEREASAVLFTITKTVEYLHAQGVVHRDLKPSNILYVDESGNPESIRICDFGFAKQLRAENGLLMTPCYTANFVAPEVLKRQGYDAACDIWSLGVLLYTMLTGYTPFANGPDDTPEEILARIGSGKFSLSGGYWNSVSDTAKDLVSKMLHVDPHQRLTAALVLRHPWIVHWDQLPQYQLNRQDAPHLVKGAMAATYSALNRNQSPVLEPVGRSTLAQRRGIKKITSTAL
Chain of PRKX (human) (P51817 whole entry, looked up): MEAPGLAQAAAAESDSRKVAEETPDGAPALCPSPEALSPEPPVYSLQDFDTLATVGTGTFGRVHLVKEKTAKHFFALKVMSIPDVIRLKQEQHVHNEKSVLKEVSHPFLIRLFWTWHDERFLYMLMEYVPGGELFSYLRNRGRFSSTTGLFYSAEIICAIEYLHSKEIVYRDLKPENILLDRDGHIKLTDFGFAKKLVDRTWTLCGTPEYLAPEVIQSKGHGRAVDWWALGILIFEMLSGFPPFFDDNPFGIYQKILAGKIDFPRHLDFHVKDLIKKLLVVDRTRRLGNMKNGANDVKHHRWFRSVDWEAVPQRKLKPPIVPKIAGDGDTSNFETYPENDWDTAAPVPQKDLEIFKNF

Row | Compound | inhibition (PDPK1 (human)) [%] | inhibition (AKT2 (human)) [%] | inhibition (DMPK (human)) [%] | inhibition (RPS6KA3 KD1 (human)) [%] | inhibition (SGK3 (human)) [%] | inhibition (RPS6KA1 KD1 (human)) [%] | inhibition (AURKB (human)) [%] | inhibition (RPS6KA6 KD1 (human)) [%] | inhibition (AURKA (human)) [%] | inhibition (RPS6KA2 KD1 (human)) [%] | inhibition (PRKCG (human)) [%] | inhibition (AURKC (human)) [%] | inhibition (PRKCD (human)) [%] | inhibition (RPS6KA5 KD1 (human)) [%] | inhibition (SGK2 (human)) [%] | inhibition (PRKCI (human)) [%] | inhibition (PRKCH (human)) [%] | inhibition (PKN1 (human)) [%] | inhibition (PRKACA (mouse)) [%] | inhibition (AKT3 (human)) [%] | other results
1 | O=C1NC(=O)C(c2ccccc2[N+](=O)[O-])=C1Nc1ccc(O)c(Cl)c1 | 0 | 0 | 0 | 0 | 0 | 7 | 12 | 9 | 6 | 0 | 0 | 23 | 9 | 0 | 0 | 0 | 2 | 0 | 0 | 0 | inhibition (STK32B (human)): 0%; inhibition (PRKX (human)): 2%; inhibition (PRKCQ (human)): 0%; inhibition (RPS6KA4 KD1 (human)): 0%; inhibition (AKT1 (human)): 0%; inhibition (PRKCE (human)): 4%; inhibition (PRKACB (human)): 5%
2 | Cn1cnc2c(NCc3ccccc3)nc(NCCO)nc21 | 0 | 0 | 0 | 0 | 0 | 0 | 4 | 0 | 0 | 0 | 0 | 0 | 3 | 0 | 0 | 0 | 0 | 6 | 5 | 0 | inhibition (STK32B (human)): 0%; inhibition (PRKX (human)): 7%; inhibition (PRKCQ (human)): 0%; inhibition (RPS6KA4 KD1 (human)): 0%; inhibition (AKT1 (human)): 5%; inhibition (PRKCE (human)): 0%; inhibition (PRKACB (human)): 0%
3 | CS(=O)(=O)CCNCc1nc(-c2ccc3ncnc(Nc4ccc(OCc5cccc(F)c5)c(Cl)c4)c3c2)cs1 | 0 | 0 | 5 | 0 | 6 | 14 | 0 | 5 | 13 | 0 | 10 | 21 | 0 | 0 | 11 | 0 | 6 | 0 | 8 | 0 | inhibition (STK32B (human)): 9%; inhibition (PRKX (human)): 7%; inhibition (PRKCQ (human)): 0%; inhibition (RPS6KA4 KD1 (human)): 6%; inhibition (AKT1 (human)): 16%; inhibition (PRKCE (human)): 14%; inhibition (PRKACB (human)): 5%
4 | Cc1ccccc1C(=O)c1ccc(Nc2ccc(Br)cc2N)cc1Cl | 0 | 0 | 0 | 0 | 0 | 0 | 0 | 0 | 0 | 0 | 0 | 0 | 0 | 0 | 0 | 0 | 0 | 0 | 4 | 0 | inhibition (STK32B (human)): 0%; inhibition (PRKX (human)): 0%; inhibition (PRKCQ (human)): 0%; inhibition (RPS6KA4 KD1 (human)): 0%; inhibition (AKT1 (human)): 0%; inhibition (PRKCE (human)): 12%; inhibition (PRKACB (human)): 0%

— the kinase profiling compilation of Christmann-Franck et al. (2016)
